{
  "source": "patent US20140107176A1",
  "about": "“METHOD OF MODULATING A PROSTATE CANCER CELL” (Agency for Science, Technology and Research, priority 2012, published 2014)",
  "format_in_all_cases": "cell-based, human",
  "key": {"[1]": {"tested_on": "VCaP cells", "test": "Time course expression analysis of AR and ERG mRNA and protein in VCaP cells after DHT stimulation", "details": "10 nM DHT", "procedure": "(§1) FIG. 1. Androgen stimulates distinct expression and chromatin binding profiles for AR and ERG in prostate cancer cells. Time course expression analysis of AR and ERG (A) mRNA and (B) protein levels in VCaP cells after stimulation with 10 nM DHT at various time points. Error bars represent S.E.M of at least 3 independent repeats. (C) Androgen stimulates AR and ERG binding to chromatin. Hormone depleted VCaP cells were treated with 100 nM DHT for 0, 2, or 18 hrs. Cells were cross-linked with formaldehyde and chromatin was immunoprecipitated with antibodies against AR or ERG. Immunoprecipitated DNA was quantified with qPCR for specific binding sites and a randomly selected genomic location as control (ctrl) region. Error bars represent S.E.M of at least 3 independent experiments.\nThe human prostate cancer cell line, VCaP (American Type Culture Collection), was maintained in DMEM supplemented with 10% fetal bovine serum (FBS), sodium pyruvate, sodium bicarbonate, and penicillin/streptomycin at 37° C. under 5% CO2. Unless otherwise stated, for experiments requiring DHT (Tokyo Chemical Industry) treatment, VCaP cells were grown for 24 hours prior to stimulation in phenol red free DMEM supplemented with 10% charcoal-dextran stripped fetal bovine serum (CDFBS), sodium pyruvate, sodium bicarbonate, and penicillin/streptomycin.\nCells were harvested and total RNA was collected in TRI-reagent (Sigma) and purified with PureLink™ RNA Mini Kit (Invitrogen). Reverse transcription of RNA to cDNA was carried out using M-MLV reverse transcriptase (Promega). RNA expression levels were measured using quantitative PCR and normalized to GAPDH. The primers for cDNA quantification can be found in FIG. 9.\nThe antibodies used for western blot analysis include anti-AR (sc-816), anti ERG (sc-354), anti-Vinculin (sc-25336) from Santa Cruz, anti-AR (AR441) from Labvision, anti-HDAC1 (#05-100), anti-HDAC2 (#05-814) from Millipore, anti-HDAC3 (#3949) and anti-EZH2 (#3147) from Cell Signaling Technology."}, "[2]": {"tested_on": "VCaP cells", "test": "AR and ERG ChIP-qPCR in VCaP cells after DHT stimulation", "details": "100 nM DHT", "procedure": "as §1\n(§2) ChIP assay was performed as described previously (47). Briefly, VCaP cells were fixed with 1% formaldehyde (Sigma-Aldrich) for 10 minutes prior to harvesting. Next, the cells were resuspended in SDS lysis buffer containing protease inhibitors. The lysed cells were then sonicated shearing the chromatin into 500-1000 base pairs in length. After pre-clearing with rabbit IgG (Santa Cruz Biotechnology) for 2 hours, the chromatin was immunoprecipitation overnight with the corresponding antibodies and Sepharose beads A (Zymed). After washing the beads, the captured DNA was eluted and de-crosslinked at 65° C. overnight prior to purification with QIAquick spin PCR purification kit (Qiagen). Real-time quantitative Polymerase Chain Reaction (qPCR) was carried out using the KAPA SYBR FAST qPCR kit (Kapa Biosystems).\nAll ChIP-qPCR primer sequences can be found in FIG. 8. […] Specifically, cells were first fixed with 2 mM DSG (Pierce) for 45 minutes prior to formaldehyde fixation. Antibodies that were used for ChIP analysis include anti-AR (sc-815x), anti-ERG (sc-353), anti-HDAC3 (sc-11417) from Santa Cruz Biotechnology, anti-HDAC1 (ab7028-50), anti-HDAC2 (ab7029-50) from Abcam, and anti-EZH2 (39933) from Active Motif."}, "[3]": {"tested_on": "VCaP cells", "test": "HDAC1, HDAC2, HDAC3 and EZH2 ChIP-qPCR in VCaP cells before and after DHT treatment", "details": "100 nM DHT, 2 hrs", "procedure": "FIG. 4. HDACs and EZH2 are recruited to AR binding sites. […] (B) Androgen-depleted VCaP cells were treated with either EtOH or 100 nM DHT for 2 hrs. The cells were then double crosslinked with DSG followed by formaldehyde. […] Error bars represent S.E.M of at least 3 independent experiments.\nas §2\nAll ChIP-qPCR primer sequences can be found in FIG. 8. […] Specifically, cells were first fixed with 2 mM DSG (Pierce) for 45 minutes prior to formaldehyde fixation. […]"}, "[4]": {"tested_on": "EZH2", "test": "Transcript levels of PSA and FKBP5 in VCaP cells after blocking EZH2 with DZNep (RT-qPCR)", "details": "3 μM DZNep, 24 or 48 hrs", "procedure": "(§3) FIG. 6. Co-recruitment of ERG, HDACs, and EZH2 to ARBS attenuates AR-dependent transcription. […] (C) VCaP cells grown in full serum (top) or depleted with hormones and treated with 10 nM DHT (bottom) were subjected to varying concentrations of TSA for 24 hours. Total RNA from the treated cells were then harvested and converted to cDNA before quantifying for gene expression levels by qPCR. GAPDH was used as an internal normalization control. Error bars represent S.E.M of at least 3 independent experiments. (D) VCaP cells grown in full serum (top) or depleted with hormone and treated with 10 nM DHT to 8 hours (bottom) were subjected to 3 μM DZNep treatment for 24 (top) or 48 (bottom) hrs. Total RNA was extracted and processed as described in FIG. 6C. Error bars represent S.E.M of at least 3 independent experiments.\n(§4) The human prostate cancer cell line, VCaP (American Type Culture Collection), was maintained in DMEM supplemented with 10% fetal bovine serum (FBS), sodium pyruvate, sodium bicarbonate, and penicillin/streptomycin at 37° C. under 5% CO2. […]\n(§5) Cells were harvested and total RNA was collected in TRI-reagent (Sigma) and purified with PureLink™ RNA Mini Kit (Invitrogen). […] RNA expression levels were measured using quantitative PCR and normalized to GAPDH. The primers for cDNA quantification can be found in FIG. 9. […]"}, "[5]": {"tested_on": "HDACs", "test": "Transcript levels of PSA and FKBP5 in VCaP cells after blocking HDACs with TSA (RT-qPCR)", "details": "24 hours", "procedure": "as §3, §4, §5"}, "[6]": {"tested_on": "VCaP cells", "test": "Matrigel invasion assay with siRNA-treated VCaP cells", "details": "silencing of VCL, 48 hrs", "procedure": "(§6) FIG. 7. ERG, HDACs, and EZH2 promote cell invasiveness and inhibit epithelial differentiation by antagonizing AR-dependent transcription of cell adhesion molecules. […] Oncomine Molecular Concept Map analysis was performed to compare ERG-associated (5 kb from TSS) androgen induced genes (>2 fold) that were identified in our study against clinical prostate cancer gene signatures available in the Oncomine database. The criteria for significant associations between node is defined as OD>=2; p-value <le-4. (B) Boxplot showing the relative mRNA expression of VCL in clinical prostate samples from the Yu et al (49) study, which has been deposited in the Oncomine database. […] (G) The effect of AR and ERG silencing on VCL gene expression was analyzed as described in FIG. 3D-E. Error bars represent S.E.M of at least 3 independent experiments. (H) The effect of TSA on the androgen-dependent gene regulation of VCL was analyzed as described in FIG. 6C. […] (I) The effect of DZNep on the androgen-dependent gene regulation of VCL was analyzed as described in FIG. 6D. […] The number of cells per high power field (HPF) that passed through the transwell was counted. […] (K) The effect of VCL suppression on cancer cell survival was assessed by flow cytometry. siRNA transfected cells were fixed prior staining with propidium iodide for flow analysis. […]"}, "[7]": {"tested_on": "VCaP cells", "test": "Flow cytometry of siRNA transfected VCaP cells (subG1 cell death, BrdU proliferation)", "details": "silencing of VCL", "procedure": "as §6"}},
  "data": [
    {"compound": "C[C@]12CCC(=O)C[C@@H]1CC[C@@H]1[C@@H]2CC[C@]2(C)[C@@H](O)CC[C@@H]12", "note": "[DHT]", "values": [
      {"measurement": "mRNA and protein levels of ERG", "setting": "[1]", "result": "up-regulated"},
      {"measurement": "time of peak ERG RNA level", "setting": "[1]", "result": 6, "unit": "h"},
      {"measurement": "time of peak ERG protein level", "setting": "[1]", "result": 12, "unit": "h"},
      {"measurement": "AR protein level", "setting": "[1]; across time", "result": "remained relatively constant"},
      {"measurement": "level of AR mRNA", "setting": "[1]; across time", "result": "repressed"},
      {"measurement": "AR binding to the enhancer AR binding site (ARBS) of PSA", "setting": "[2]; 2 hrs", "result": "recruited strongly"},
      {"measurement": "ERG recruitment to the ARBS of PSA and the ERGBS associated with PLA1A", "setting": "[2]; 2 hrs", "result": "recruited"},
      {"measurement": "AR binding to the enhancer AR binding site (ARBS) of PSA", "setting": "[2]; 18 hrs", "result": "reduced significantly"},
      {"measurement": "ERG recruitment to the ARBS of PSA and the ERGBS associated with PLA1A", "setting": "[2]; 18 hrs", "result": "further enhanced"},
      {"measurement": "recruitment of HDAC1, HDAC2, HDAC3 and EZH2 to AR and ERG co-localized binding sites", "setting": "[3]", "result": "in most cases enhanced"}
    ]},
    {"compound": "Nc1nccc2c1ncn2[C@@H]1C=C(CO)[C@@H](O)[C@H]1O", "note": "[DZNep, 3-deazaneplanocin A]", "values": [
      {"measurement": "expression of PSA and FKBP5", "setting": "[4]", "result": "enhanced"}
    ]},
    {"compound": "CC(/C=C/C(=O)NO)=C\\[C@@H](C)C(=O)c1ccc(N(C)C)cc1", "note": "[TSA, Trichostatin A]", "values": [
      {"measurement": "PSA and FKBP5 transcript levels", "setting": "[5]; high concentrations of TSA", "result": "repressive"},
      {"measurement": "PSA and FKBP5 transcript levels", "setting": "[5]; low concentrations of TSA", "result": "enhanced"}
    ]},
    {"compound": "siVCL: siRNA against VCL synthesized from 1stBase, rCrUrGrGrCrUrUrGrCrArGrArUrCrCrArArArUrUrU [SEQ ID NO.: 5] (CUGGCUUGCAGAUCCAAAUUU; RNA, backbone not given here)", "values": [
      {"measurement": "invasiveness of VCaP cells", "setting": "[6]", "result": "increased"},
      {"measurement": "cell death (subG1 phase)", "setting": "[7]", "result": "not due to differences"},
      {"measurement": "cell proliferation (S phase, BrdU)", "setting": "[7]", "result": "not due to differences"}
    ]}
  ]
}
